Measured values reported in patent publication US11230688B2, “In vitro gastrointestinal model comprising lamina propria-derived cells” (EMULATE, Inc., priority 2016, dated 2022).
Where two headings read alike, the source gives them in different places. Blank lines part the entries; values can stand above or below the molecule they belong to.

Legend:
[1] = system: microfluidic co-cultures of Caco-2 epithelial cells, HUVECs and LPDCs; assay: Gut-On-Chip cytokine and chemokine production in co-cultures with lamina propria-derived cells; format: cell-based, human
Method: An exemplary bacteria antigen used was PAM2CSK4. […] PAM2CSK4 refers to a synthetic diacylated lipopeptide.
In order to determine contributory factors to the trends in permeability changes observed by combinations of prednisone treatments as in Example 5, cytokine and chemokine production were measured from media samples obtained from the microfluidic cultures as described in EXAMPLE 5. After an incubation time, media samples were extracted from the microfluidic device then used for determining amounts cytokine and chemokine produced, such as IL-6 and IL-9 in FIG. 18A-B; IL-8 and G-CSF in FIG. 19A-B; GM-CSF and MCP-1 in FIG. 20A-B; MIP1b and PDGF-AB/BB in FIG. 21A-B; and RANTES in FIG. 22. Amounts of cytokine and chemokine protein are measure in pg/ml (picogram per milliliter).

Ulcerative Colitis = conditions: cited from earlier work
[2] = system: Caco-2 epithelial cell layer; assay: Gut-On-Chip barrier function (apparent permeability, Papp) with lamina propria-derived cells; conditions: for Loss of barrier function: PAM2CSK4, overnight incubation
Description: (§1) This permeability assay method for adsorption across a gut wall, i.e. caco-2 cells in a gut-on-chip, measures the rate of transport of a test compound added to the basal side of the membrane, for example, inulin-FITC, across to the apical side. […] Conversely, adding a test compound to the apical side may also be used to measure transport to the basal side.
(§2) The Gut-On-Chip modeling of inflammation was used for testing bacterial antigen effects on barrier function and cytokine production. An exemplary bacteria antigen used was PAM2CSK4. […] PAM2CSK4 refers to a synthetic diacylated lipopeptide.
(§3) A co-culture configured as described herein was incubated in a device of the present inventions as described in FIG. 7.
(§4) Cultivation of Caco-2 cells in microfluidic device: Caco-2 cell monolayers were seeded as described herein. Basal regions of cells were exposed to medium under flow. […] Experimental procedure: Cells were used for this experiment between days 7 and 9 post seeding. Donor solutions (including a 100 μg/ml Inulin-FITC) were prepared, and solutions used in this experiment were prewarmed to 37° C. Inulin-FITC was used as an indicator for the determination of the monolayer integrity. […] Inulin-FITC method: 6 mM Inulin-FITC may be added into an apical region of a monolayer; and incubated for 1 hr. A standard curve may be prepared in a separate container, e.g. a 0.5 to 50 μM; HBSS blank containing 1 to 0.5% DMS0 is placed in wells; Aliquots of 200 μl are transferred from the separate container to a solid black plate; Aliquots of 50 μl are transferred from the device to a solid black plate containing 50 μl HBSS with 1-0.5% DMSO; Plates may be read in a fluorescent reader (Excitation/Emission wavelength 480/530 nm); LY rejection (Pc) values are calculated. V. Molecule transport assay: Transport of a molecule across the monolayer may also be determined; a test compound may be added at the apical region of the monolayer then removed from the apical and/or basal media then analyzed using LC-MS method for loss (e.g. apical region) or gain (e.g. basal region).
(§5) Microfluidic co-cultures with HUVEC cells in the bottom chamber, LPDCs from human non-inflamed regions of UC tissue biopsies, LPDCs from UC inflamed tissue biopsies, and samples with no LPDCs, were overlaid with Caco-2 epithelial cell layers.

[3] = system: Intestine On-Chip with TH1 or TH9 populations; assay: Intestine On-Chip seeded with plate-differentiated TH1 or TH9 cells, soluble reagents: cytokine production and gene expression; format: cell-based, human; conditions: for IL-10 secretion: TH9 populations
Description: Experiments were designed to evaluate whether anti-CD3 and anti-CD28 co-stimulatory activation (soluble reagents) on chip would stimulate on chip T cells (previously activated and differentiated on plates) to continue functioning as activated effector cells within the chip tissue microenvironment. Further, TH1 and TH9 T cell populations underwent testing for an exacerbated response (either tissue alterations or changes in the characteristics of the T cell population) to a specific antigen stimulation, e.g. PAM2CSK4 (TLR2) bacterial agonist, with or without additional co-stimulation (i.e. using soluble reagents). Stimulation on-chip was done as a treatment on Day 7 of culture.
In this example, a TH1 cell population was produced from a population of mature/naive CD4+ T cells, as described in Example 7. This population of CD4+ T cells were co-stimulated with adhered CD3 and soluble CD28 antibodies, without added cytokines, for inducing differentiation of TH1 cells on plates. Unlike co-stimulation with adhered CD3 and soluble CD28 antibodies in the presence of TGFB IL-4, and IFNg cytokines which induced differentiation of TH9 cells, as described herein. Thus, in this example, purified CD4+ T cell populations were plated into tissue culture plates for activation and differentiation into one selected T cell subtype, e.g. TH1 in one plate, and TH9 in another plate.
In order to further test whether PBMCs activated and differentiated with soluble factors were capable of inducing inflammation on chips, pro-inflammatory cytokine production was compared between untreated, PAM2CSK4 treated with and without Tofacitinib. […]
Evaluation of the effects of T-cell activation on the Intestine On-Chip by perfusion of soluble immune activating factors (anti-CD3 and anti-CD2) to the media is shown in FIGS. 36A-B-39A-C. In particular, activated T-cell subsets were evaluated for disease-specific cytokine production.

[4] = system: Caco-2 epithelial cell layer
Description: as §1, §2, §3, §4, §5

[5] = system: microfluidic co-cultures of Caco-2 epithelial cells, HUVECs and LPDCs; assay: Gut-On-Chip cytokine and chemokine production in co-cultures with lamina propria-derived cells; format: cell-based, human; remark: listed apart in the source
[6] = system: TH1 and TH9 CD4+ T cell populations; assay: On-plate bacterial antigen stimulation of differentiated CD4+ T cell subsets (cytokines, IL-9 activation factors); format: cell-based, human
Description: In this example, a TH1 cell population was produced from a population of CD4+ T cells obtained from a sample of PBMCs. This population of CD4+ T cells were co-stimulated with soluble CD3 and CD28 antibodies without added cytokine stimulation for inducing differentiation of TH1 cells. Unlike the co-stimulation with soluble CD3 and CD28 antibodies in the presence of TGFB, IL-4, and IFNg cytokines for inducing differentiation of TH9 cells as described herein.
Thus, in this example, purified CD4+ T cell populations were plated into tissue culture plates for activation and differentiation into one selected T cell subtype, e.g. Th1 in one plate, and Th2 in another plate.
A sample of each TH cell type was exposed to PAM2CSK4, then log 2 fold changes in protein expression of either pathway molecules or IL-9 were measured and compared to duplicate samples not treated with PAM2CSK4.

[7] = system: resident immune cells from healthy and UC patient LP tissue; assay: Secreted cytokine production of resident immune cells cultured on plates, 24 hour bacterial challenge; format: cell-based, human; conditions: immune cells from inflamed UC tissue
[8] = Prednisone alone, non-inflamed LPDC cultures
[9] = prednisone, inflamed LPDCs, with and without PAM2CSK4
[10] = prednisone, non-inflamed and inflamed LPDCs treated with PAM2CSK4

Description for Caco-2 epithelial layer: The chips treated with PAM2CSK4 as a model bacterial antigen are considered infected chips.

Permeability (Papp) ([2]; FIG. 17A, prednisone, at least one patient sample of non-inflamed LPDCs): some benefit in reducing permeability | Permeability (Papp) ([2]; FIG. 17A, prednisone, at least one patient sample with inflamed UC LPDC): undesirable increase | Permeability (Papp) ([2]; FIG. 17B, overnight, prednisone, non-inflamed UC LPDC): undesirable increase in permeability | Permeability (Papp) ([2]; prednisone and PAM2CSK4, inflamed UC LPDC): little benefit | Permeability (Papp) ([2]; prednisone and PAM2CSK4, non-inflamed UC LPDC): range of responses | Permeability (Papp), trend ([2]; prednisone and bacterial antigen): trend for decreasing permeability | Permeability (Papp), trend ([2]; prednisone, non-inflamed UC LPDC): increased permeability | Permeability (Papp), effect on average ([2]; prednisone, non-inflamed or inflamed UC LPDC): no significant effect
Molecule: C[C@]12C=CC(=O)C=C1CC[C@@H]1[C@@H]2C(=O)C[C@@]2(C)[C@H]1CC[C@]2(O)C(=O)CO [prednisone]
PDGF-AA/BB production ([1]; Prednisone alone): did not appear to be a reduction in PDGF-AA/BB | GM-CSF production [1, 8]: did not appear to be a reduction in GM-CSF | MCP-1 production [1, 8]: did not appear to be a reduction in MCP-1 | IL-8 production ([1]; non-inflamed LPDC cultures, Prednisone alone or PAM2CSK4): did not appear to be a reduction in IL-8 | IL-9 production ([1]; prednisone on PAM2CSK4-increased IL-9): significantly reduced | IL-6 production ([1]; prednisone, inflamed LPDCs, endogenous or induced by PAM2CSK4): reduce IL-6 production | GM-CSF production [1, 9]: reduced GM-CSF production | IL-8 production [1, 9]: trend for reducing IL-8 production | MCP-1 production [1, 9]: reduced MCP-1 production | IL-6 production ([1]; prednisone, non-inflamed LPDCs): does not appear to have an effect | PDGF-AA/BB production ([1]; prednisone, non-inflamed LPDCs): trend for reducing PDGF-AA/BB production | PDGF-AA/BB production [1, 10]: trend for reducing PDGF-AA/BB production | RANTES production [1, 10]: trend for reducing RANTES production | IL-9 production ([1]; prednisone, non-inflamed and inflamed UC LPDC, regardless of PAM2CSK4): reduced | G-CSF production ([1]; prednisone, non-inflamed or inflamed LPDCs, with and without PAM2CSK4): trend for reducing G-CSF production | Inflammatory responses (secreted cytokine production) to PAM2CSK4 treatment ([1]; prophylactic prednisone, UC patient's resident immune cells, noninflamed and inflamed tissues): suppresses the inflammatory responses | treated patients non-responsive (Ulcerative Colitis): around 16% | treated patients with full remission (Ulcerative Colitis): ~54% | treated patients with partial remission (Ulcerative Colitis): ~30% | Permeability (Papp) ([2]; FIG. 17B, overnight, prednisone, inflamed UC LPDCs): did not induce an increase in permeability | Permeability (Papp) ([2]; overnight, prednisone, inflamed UC LPDC samples): both an increase and a decrease in permeability | Permeability (Papp), trend ([2]; prednisone, inflamed UC LPDC): little difference from the non-inflamed LPDC sample

Molecule: Tofacitinib (citrate)
IL-10 secretion ([3]; mixture of PAM2CSK4 and Tofacitinib vs unstimulated): induced significant amounts

Permeability (Papp) [4]: show an increase in permeability | Avg. Z Height of Caco-2 epithelial layer (Caco-2 epithelial layer): 84 um+/−11
Molecule: PAM2CSK4
IL-6 production ([1]; 1, 2 and 4 LP mil/ml, versus co-cultures with no PAM2CSK4): induced a higher level of IL-6 production | IL-9 production ([1]; LP leukocyte co-cultures for each source (healthy, UC non-inflamed, UC inflamed)): induce IL-9 | IL-6 production ([1]; PAM2CSK4, inflamed LPDC samples): increased IL-6 production | IL-6 production ([1]; PAM2CSK4, non-inflamed LPDC samples): not with the non-inflamed LPDC samples | IL-9 production ([1]; PAM2CSK4, non-inflamed and inflamed LPDC co-cultures, over endogenous levels): significantly induced IL-9 production | Apical IL-9 cytokine secretion ([1]; apical regions, 4 LP mil/ml): not at 4 LP mil/ml | IL-9 production ([1]; epithelial cells without LP cells): not in epithelial cells without LP cells | IL-6 production ([1]; healthy LP leukocyte co-cultures and epithelial cells without LP): induce an IL6 response | Basal IL-9 cytokine secretion ([5]; 4 LP mil/ml, basal areas): induced a higher level of IL-9 production | Apical IL-9 cytokine secretion ([5]; apical regions, 1 and 2 LP mil/ml): increased with PAM2CSK4 treatment | Loss of barrier function ([2]; 4 LP mil/ml): Loss of barrier function is shown | Loss of barrier function ([2]; LP 1 mil/ml or LP 2 mil/ml): not at LP 1 mil/ml or LP 2 mil/ml | IL-10 secretion ([3]; Pam stimulated vs unstimulated): no insignificant differences | IL-8 ([3]; antigen specific stimulation (TLR2 agonist) on activated TH1 and TH9 chips): increased | GATA3 and SPI1 (log 2 fold change) ([6]; PAM2CSK4, TH1 populations): not GATA3 car SPI11 | IL-9 mRNA concentrations ([6]; PAM2CSK4, TH1 populations): did significantly increase | IRF4 and IL-9 (log 2 fold change) ([6]; PAM2CSK4, TH1 populations): produce measurable IRF4 and IL-9 | IL-9 and IL-9 activation factors (log 2 fold changes) ([6]; PAM2CSK4, TH9 populations in tissue culture plate): did not significantly increase IL-9 | Cytokine protein expression post differentiation ([6]; soluble PAM2CSK4, TH1 (CD) and TH9 (UC) cells on-plates): increases in the concentration of protein signaling | Response to TLR2 activation (secreted TNF alpha, IL-6, IL-8) [7]: stronger response
